In series [1] the test system is FHV-1. As to the kind of experiment: Fusion and entry assays with DIOC- and R18-labelled virus (confocal microscopy). It is filed as cell-based, feline herpesvirus-1 (FHV-1). The following applies: 10 MOI, CRFK cells; for Adsorption of DIOC-labelled FHV-1: 4 °C 2 h.
In a further series the test system is gB. It is filed as binding, feline herpesvirus-1 (FHV-1).
The nature of the next series: in vitro. The following applies: cat.
Series [2] concerns FHV-1. Description: Plaque reduction assay. Format: cell-based, feline herpesvirus-1 (FHV-1). The following applies: CRFK cells. Background: In a plaque reduction assay, fewer plaques than in the control indicate reduced infectivity or spread.
For series [3], the system named is FHV-1. Description: Cytopathic effect (CPE) inhibition assay. The following applies: for EC50: Felid alphaherpesvirus 1, CRFK, 48 h; for Anti-FHV-1: in vitro anti-FHV-1 effect in CRFK cells, √ / × (key not given). On the technique in general: Protection from cytopathic effect is a common read-out in antiviral testing.
For series [4], the system named is FHV-1. As to the kind of experiment: Time of drug addition assay with qPCR of viral nucleic acid copies. Format: cell-based, feline herpesvirus-1 (FHV-1). To be noted: for Inhibition of FHV-1 entry into host cells (virus entry assay): 4 °C pre-incubation then 37 °C, Saikosaponin B2 50 μg/mL; for FHV-1 nucleic acid copy numbers after drug pretreatment of cells: CRFK cells pretreated before infection, qPCR.

The target of another series is FHV-1 gB (Feline herpesvirus 1, UniProt Q86665). Description: biochemical. It is filed as binding, feline herpesvirus-1 (FHV-1). To be noted: for Binding and dissociation kinetics in words: BLI, gB; for koff: read-out: Kdis (rate of dissociation); for kon: read-out: Kon (rate of association).
Series [5] has as its system FHV-1. The arrangement: method as in earlier work. The following applies: reported for CRFK cells; cited from earlier work.
The test system of another series is CRFK cells. To be noted: 48 h, CCK-8.

The values below come from publication PMC10892935 (Viruses, 2024).

Converted amounts (≈) assume the structure as drawn. Read-outs that look alike come from different tables or passages of the source.

The EC50 is the concentration giving half of the maximal effect. A word on the Kd: it is the constant that tells how readily two partners part at equilibrium. As a reminder, the kon is the second-order rate constant of association. For `O=C1O[C@H]2[C@@H]3OC(=O)c4cc(O)c(O)c(O)c4-c4c(O)c(O)c5oc(=O)c6c(c(O)c(O)c7oc(=O)c4c5c76)-c4c(cc(O)c(O)c4O)C(=O)OC[C@H]3OC(O)[C@@H]2OC(=O)c2cc(O)c(O)c(O)c2-c2c1cc(O)c(O)c2O` (mixture of isomers) [Punicalagin], the “Adsorption of DIOC-labelled FHV-1” value in the series with FHV-1 [1] is “inhibit the adsorption of FHV-1”. Moreover, the “Thermal stability (Tm) of gB” value in the series on gB is “altered the thermal stability of gB”. The CC50 at 48 h in “in vitro” was 3.32 ± 0.28 µg/mL. The “Inhibition of FHV-1-induced cytopathic effects and plaque formation” value with FHV-1 [2] is “effective inhibitors”. In the series on FHV-1 [3], the EC50 turned out to be 2.19 µg/mL and the Anti-FHV-1 entry was “√”. In the series on FHV-1 [4], the “Inhibition of FHV-1 entry into host cells (virus entry assay)” value (shortened to “Inhibition … (virus entry assay)”) was “reduced effectiveness in inhibiting virus infection” and the “FHV-1 nucleic acid copy numbers after drug pretreatment of cells” value (“FHV-1 nucleic acid copy numbers” below) was “negligible changes”. Also, on FHV-1 gB, the dissociation constant (Kd) is below 1e-06 µM; the “Binding and dissociation kinetics in words” value is reported as “rapid binding with no dissociation”; the koff is below 1e-07 s⁻¹; the kon came to 8740 M⁻¹ s⁻¹.

As to `O=C1OC[C@H]2OC(O)[C@H](O)[C@@H](O)[C@@H]2OC(=O)c2cc(O)c(O)c(O)c2-c2c(O)c(O)c3oc(=O)c4c(c(O)c(O)c5oc(=O)c2c3c54)-c2c1cc(O)c(O)c2O` (mixture of isomers) [Punicalin], the “Adsorption of DIOC-labelled FHV-1” value in the series with FHV-1 [1] is “inhibit the adsorption of FHV-1”. In addition, in the series on gB, the “Thermal stability (Tm) of gB” value is recorded as “altered the thermal stability of gB”. In the series “in vitro” (CRFK cells), this compound yielded a CC50 at 48 h of 7.65 ± 0.68 µg/mL. Also, the “Inhibition of FHV-1-induced cytopathic effects and plaque formation” value with FHV-1 [2] is recorded as “effective inhibitors”. In the series with FHV-1 [3], the EC50 was determined as 0.22 µg/mL and the Anti-FHV-1 entry is “√”. Moreover, in the series on FHV-1 [4], the “Inhibition … (virus entry assay)” value is recorded as “reduced effectiveness in inhibiting virus infection” and the “FHV-1 nucleic acid copy numbers” value is given as “negligible changes”. Also, at FHV-1 gB, the dissociation constant Kd is below 1e-06 µM; the “Binding and dissociation kinetics in words” value is “rapid binding with no dissociation”; the koff is below 1e-07 s⁻¹; the kon worked out at 12500 M⁻¹ s⁻¹.

Take `O=C(C=Cc1ccc(O)c(O)c1)OC1CC(O)(C(=O)O)CC(O)C1OC(=O)C=Cc1ccc(O)c(O)c1` (centres unmarked) [4,5-Dicaffeoylquinic acid]: the CC50 at 48 h in “in vitro” (CRFK cells) was found to be 54.5 ± 2.89 µg/mL (≈ 106 µM). Further, in the series on FHV-1 [3], the Anti-FHV-1 entry is given as “×”. Moreover, on FHV-1 gB, the Kd was 7.96 µM, the koff turned out to be 0.0652 s⁻¹ and the kon was determined as 8180 M⁻¹ s⁻¹.

Consider `Nc1nc2c(ncn2COCCO)c(=O)[nH]1` [Acyclovir], for which the EC50 with FHV-1 [5] was 13.04 µg/mL (≈ 57.9 µM).

With `C=CCS[S+]([O-])CC=C` (centres unmarked) [Allicin], the CC50 at 48 h in “in vitro” was determined as 84.9 ± 0.87 µg/mL (≈ 523 µM). Moreover, in the series with FHV-1 [3], the Anti-FHV-1 entry was “×”. At FHV-1 gB, the Kd was 3530 µM, the koff came to 0.00299 s⁻¹ and the on-rate constant (kon) came out at 0.846 M⁻¹ s⁻¹.

In the series “in vitro”, `O=C(O)[C@H]1O[C@@H](Oc2cc3oc(-c4ccccc4)cc(=O)c3c(O)c2O)[C@H](O)[C@@H](O)[C@@H]1O` [Baicalin] yielded a CC50 at 48 h of 65.8 ± 2.12 µg/mL (≈ 147 µM). Moreover, the Anti-FHV-1 result in the series with FHV-1 [3] is recorded as “×”. Besides, on FHV-1 gB, the Kd came to 41.6 µM, the koff stood at 0.922 s⁻¹ and the kon was determined as 1090 M⁻¹ s⁻¹.

Take `Nc1ccn(C[C@@H](CO)OCP(=O)(O)O)c(=O)n1` [Cidofovir]: the concentration giving a half-maximal response (EC50) with FHV-1 [5] was 3.07 µg/mL (≈ 11 µM).

`O=C(/C=C/c1ccc(O)c(O)c1)O[C@@H]1C[C@@](OC(=O)/C=C/c2ccc(O)c(O)c2)(C(=O)O)C[C@@H](O)[C@@H]1O` [Cynarine]: in the series “in vitro” (CRFK cells), the CC50 at 48 h amounted to 60.1 ± 1.86 µg/mL (≈ 116 µM). Also, in the series on FHV-1 [3], the Anti-FHV-1 entry is reported as “×”. On FHV-1 gB, binding was put at a Kd of 8.41 µM, the koff worked out at 0.00596 s⁻¹ and the kon was 709 M⁻¹ s⁻¹.

`O=C1c2c(O)cc(O)cc2O[C@H](c2cc(O)c(O)c(O)c2)[C@H]1O` [Dihydromyricetin] yielded a CC50 at 48 h in the series “in vitro” of 3.22 ± 0.43 µg/mL (≈ 10.1 µM). Further, in the series with FHV-1 [3], the Anti-FHV-1 result is reported as “×”. For the same compound, at FHV-1 gB, the Kd was determined as 36.1 µM, the koff was 0.00506 s⁻¹ and the kon was 140 M⁻¹ s⁻¹.

In the series “in vitro”, `COc1ccc(-c2cc(=O)c3c(O)cc(O[C@@H]4O[C@H](CO[C@@H]5O[C@@H](C)[C@H](O)[C@@H](O)[C@H]5O)[C@@H](O)[C@H](O)[C@H]4O)cc3o2)cc1O` [Diosmin] had a CC50 at 48 h of 449.75 ± 0.21 µg/mL (≈ 739 µM). Also, the Anti-FHV-1 result in the series with FHV-1 [3] was “×”. At FHV-1 gB, the Kd was 90.8 µM, the koff came out at 0.034 s⁻¹ and the kon was 374 M⁻¹ s⁻¹.

For `O=C(O)P(=O)(O)O` [Foscarnet], in the series with FHV-1 [5], the EC50 was 44.71 µg/mL (≈ 355 µM).

Regarding `Nc1nc(O)c2ncn(COC(CO)CO)c2n1` [Ganciclovir], the 50% effective concentration (EC50) in the series on FHV-1 [5] was 1.33 µg/mL (≈ 5.21 µM).

In the series “in vitro”, `O=c1c(O[C@@H]2O[C@H](CO)[C@H](O)[C@H](O)[C@H]2O)c(-c2ccc(O)c(O)c2)oc2cc(O)cc(O)c12` [Hyperoside] had a CC50 at 48 h above 50 µg/mL. In addition, the Anti-FHV-1 entry with FHV-1 [3] was “×”. On FHV-1 gB, the Kd was 23.9 µM, the koff is 0.00683 s⁻¹ and the kon came out at 286 M⁻¹ s⁻¹.

For `O=c1[nH]c(=O)n([C@H]2C[C@H](O)[C@@H](CO)O2)cc1I` [Idoxuridine], the EC50 with FHV-1 [5] was 1.52 µg/mL (≈ 4.29 µM).

Consider `O=c1c(O[C@@H]2O[C@H](CO)[C@@H](O)[C@H](O)[C@H]2O)c(-c2ccc(O)c(O)c2)oc2cc(O)cc(O)c12` [Isoquercetin], for which the CC50 at 48 h in “in vitro” stood at 289 ± 5.69 µg/mL (≈ 623 µM). Moreover, the Anti-FHV-1 entry in the series with FHV-1 [3] is listed as “×”. Further, at FHV-1 gB, the affinity, expressed as Kd, was 73.3 µM; the koff came out at 0.0179 s⁻¹; the kon was determined as 245 M⁻¹ s⁻¹.

With `Nc1nc2c(ncn2CCC(CO)CO)c(=O)[nH]1` [Penciclovir], the EC50 in the series on FHV-1 [5] is 3.50 µg/mL (≈ 13.8 µM).

`CC1OC(OC2CCC3(C)C(CCC4(C)C3C=CC3=C5CC(C)(C)CCC5(CO)C(O)CC34C)C2(C)CO)C(O)C(OC2OC(CO)C(O)C(O)C2O)C1O` (centres unmarked) [Saikosaponin B2]: the “Adsorption of DIOC-labelled FHV-1” value in the series on FHV-1 [1] is “inhibit the adsorption of FHV-1”. Also, the “Entry of R18-labelled FHV-1” value in the series on FHV-1 [1] (4 °C 2 h then 37 °C 2 h) is “inhibited the entry of FHV-1”. In addition, the “Thermal stability (Tm) of gB” value in the series on gB is “altered the thermal stability of gB”. Further, the CC50 at 48 h in the series “in vitro” (CRFK cells) stood at 197.5 ± 0.52 µg/mL (≈ 253 µM). In addition, the “Inhibition of FHV-1-induced cytopathic effects and plaque formation” value in the series with FHV-1 [2] is recorded as “effective inhibitors”. In the series on FHV-1 [3], a half-maximal response (EC50) required 13.5 µg/mL (≈ 17.3 µM) and the Anti-FHV-1 entry is given as “√”. Moreover, in the series with FHV-1 [4], the “Inhibition … (virus entry assay)” value was “exhibited inhibitory effects” and the “FHV-1 nucleic acid copy numbers” value is “negligible changes”. For the same compound, the “Viral nucleic acid expression with drug treatment after infection” value with FHV-1 [4] (drug applied to CRFK cells infected with FHV-1, qPCR) is given as “remarkably significant difference”. Moreover, on FHV-1 gB, the “Binding and dissociation kinetics in words” value is “rapid binding and dissociation”.

`O=C(O)[C@H]1O[C@@H](Oc2cc3oc(-c4ccc(O)cc4)cc(=O)c3c(O)c2O)[C@H](O)[C@@H](O)[C@@H]1O` [Scutellarin] returned a CC50 at 48 h in the series “in vitro” of 185 ± 3.37 µg/mL (≈ 401 µM). Moreover, the Anti-FHV-1 entry in the series with FHV-1 [3] is “×”. Besides, at FHV-1 gB, binding was put at a Kd of 0.647 µM, the koff turned out to be 0.00875 s⁻¹ and the kon amounted to 13500 M⁻¹ s⁻¹.

Take `O=C(O)c1cc(O)c2c(c1)[C@H]([C@H]1c3cc(C(=O)O)cc(O)c3C(=O)c3c(O[C@@H]4O[C@H](CO)[C@@H](O)[C@H](O)[C@H]4O)cccc31)c1cccc(O[C@@H]3O[C@H](CO)[C@@H](O)[C@H](O)[C@H]3O)c1C2=O` [Sennoside A]: the CC50 at 48 h in the series “in vitro” is 131 ± 8.86 µg/mL (≈ 152 µM). Also, the Anti-FHV-1 result in the series on FHV-1 [3] is on record as “×”. Moreover, on FHV-1 gB, the Kd was below 1e-06 µM, the koff is below 1e-07 s⁻¹ and the kon was found to be 1440 M⁻¹ s⁻¹.

For `C[C@@H]1O[C@@H](O[C@@H]2[C@@H](O)[C@H](OCCc3ccc(O)c(O)c3)O[C@H](CO)[C@H]2OC(=O)/C=C/c2ccc(O)c(O)c2)[C@H](O)[C@H](O)[C@H]1O` [Verbascoside], the CC50 at 48 h in “in vitro” was 79.6 ± 0.99 µg/mL (≈ 127 µM). In addition, the Anti-FHV-1 entry in the series on FHV-1 [3] was “×”. In addition, on FHV-1 gB, binding was put at a Kd of 39.9 µM, the koff stood at 0.00729 s⁻¹ and the kon is 183 M⁻¹ s⁻¹.

Ivermectin showed a CC50 in the series on CRFK cells of 1.81 ± 0.06 µg/mL. The Anti-FHV-1 result in the series with FHV-1 [3] is reported as “×”.
